Laboratory results as given in US11071738B2, “Therapeutic agent for fatty liver diseases and therapeutic agent for adiposity” (Hiroshima University, priority 2017, dated 2021).

Test system: NASH mice (MCDD)
Assay: NASH treatment study in mice fed a methionine-choline-deficient diet (MCDD)
Assay type: in vivo, mice (C57BL/6J)
Conditions: NASH mice given MCDD, 8 weeks; i.p. 2.5 mg/kg/day three times a week
Experimental: Next, an animal experiment was performed on NASH mice that were produced by feeding a methionine-choline-deficient diet (MCDD).

Row | SMILES | hepatic fibrosis (Azan staining) | fat accumulation in liver tissue (microscopic observation)
1 | O=C(O[C@H](Cc1ccc2ccccc2c1)C(=O)O)C1c2ccccc2-c2ccccc21 [Compound H-31] | significantly inhibited | 
2 | O=C(O)[C@@H](Cc1ccc2ccccc2c1)NC(=O)n1c2ccccc2c2ccccc21 [Compound H-163] | significantly inhibited | reduced

Same assay, conditions: NASH mice given MCDD; i.p. 2.5 mg/kg/day three times a week

Row | SMILES | Collagen 1a1 mRNA expression level | Collagen 1a2 mRNA expression level | SMA mRNA expression level
3 | O=C(O[C@H](Cc1ccc2ccccc2c1)C(=O)O)C1c2ccccc2-c2ccccc21 [Compound H-31] | reduced | reduced | reduced
4 | O=C(O)[C@@H](Cc1ccc2ccccc2c1)NC(=O)n1c2ccccc2c2ccccc21 [Compound H-163] | reduced | reduced | reduced

Test system: NASH model mice (HFDT)
Assay: not given
Conditions: HFDT NASH mice, 8 weeks; i.p. 2.5 mg/kg/day or oral 5.0 mg/kg/day three times a week
Experimental: Animal experiments were performed using non-alcoholic steatohepatitis (NASH) model mice to test the compounds synthesized in Examples for the therapeutic effect on NASH.
NASH model mice (hereinafter referred to as “NASH mice”) were produced by feeding a high-fat diet containing trans fatty acids (HFDT) to individual male laboratory mice (C57BL/6J) for 8 weeks. […] In addition, a normal diet was given to individual male laboratory mice (C57BL/6J) for 8 weeks to prepare control mice.

Row | fasting blood glucose level | SMILES | blood ALT (GPT) value, index of liver inflammation | increase in liver weight
5 | no significant abnormality | COC(=O)[C@@H](Cc1ccc2ccccc2c1)NC(=O)n1c2ccccc2c2ccccc21 [Compound H-144] | decreased | significantly reduced
6 | no significant abnormality | O=C(O)[C@@H](Cc1ccc2ccccc2c1)NC(=O)n1c2ccccc2c2ccccc21 [Compound H-163] | decreased | significantly reduced

Same assay, conditions: HFDT NASH mice, 8 weeks; oral 5.0 mg/kg/day three times a week

Row | SMILES | fasting blood glucose level | increase in liver weight
7 | O=C1C=CC(=O)c2c(O)cccc21 [Juglone, reference compound] | abnormal increase | significantly reduced

Same assay, conditions: HFDT NASH mice; i.p. 2.5 mg/kg/day three times a week

Row | SMILES | death of mice
8 | O=C1C=CC(=O)c2c(O)cccc21 [Juglone, reference compound] | all dead within 8 weeks

Same assay, conditions: HFDT NASH mice; oral 5.0 mg/kg/day three times a week

Row | SMILES | death of mice
9 | O=C1C=CC(=O)c2c(O)cccc21 [Juglone, reference compound] | not dead

Same assay, conditions: NASH mice given HFDT

Row | SMILES | fat accumulation in liver tissue (microscopic observation)
10 | O=C(O)[C@@H](Cc1ccc2ccccc2c1)NC(=O)n1c2ccccc2c2ccccc21 [Compound H-163] | significantly reduced

Biological target: T1, Pin1 (Homo sapiens, UniProt Q13526)
T1 construct: endogenous in cells; host or cells: 293T cells
T1 sequence (Q13526 whole entry): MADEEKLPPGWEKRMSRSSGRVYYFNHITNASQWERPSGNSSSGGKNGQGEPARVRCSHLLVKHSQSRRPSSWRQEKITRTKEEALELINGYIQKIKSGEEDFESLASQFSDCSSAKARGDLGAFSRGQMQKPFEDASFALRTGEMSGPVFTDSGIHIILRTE
Assay: Cell-based Pin1 inhibition assay with AMPK phosphorylation level as index
Set-up: key to Pin1 inhibition activity: +++: a higher level of AMPK phosphorylation is promoted, as compared with C1; ++: a similar level of AMPK phosphorylation is promoted, as compared with C1; +: a lower level of AMPK phosphorylation is promoted, as compared with C1; −: no or almost no promotion is found in AMPK phosphorylation
Conditions: 293T cells, compound at 100 μM, 10 mM 2-DG, pAMPK blot compared with C1
Experimental: To evaluate the inhibitory activity of each synthesized compound against the function of Pin1, a cell-based assay was performed according to the method previously developed by the inventors (Yusuke Nakatsu et al., Journal of Biological Chemistry, 2015, Vol. 290, No. 40, pp. 24255-24266), in which the phosphorylation level of AMPK (AMP-activated protein kinase), a protein whose phosphorylation is inhibited by Pin1, was examined as an index.
Briefly, 293T cells were plated on a collagen-coated 24-well plate. Forty-eight hours later, each compound synthesized in the preceding example (at 100 μM) was added to the plate, and the plate was left to stand in an incubator for 30 minutes. Subsequently, 10 mM 2-DG was added to the plate, and one hour later, each sample was collected with a buffer containing mercaptoethanol and SDS.
SDS-PAGE and blotting were performed, and blocking was then performed with 3% BSA for 1 hour, according to conventional protocols. Subsequently, a pAMPK antibody (Cell Signaling; diluted 1:2000 in Can Get Signal Solution 1, Toyobo) as a primary antibody, and an HRP-linked anti rabbit IgG (GE Healthcare; diluted 1:4000 in Can Get Signal Solution 2, Toyobo) as a secondary antibody were allowed to react at ambient temperature for 1 hour prior to detection.
The inhibitory activity against the function of Pin1 was evaluated by comparing the inhibition levels between each compound and a known Pin1 inhibitor, C1, as indicated below: […]

Row | SMILES | Pin1 inhibition activity
11 | O=C(O)[C@@H](Cc1ccc2ccccc2c1)NC(=O)N1c2ccccc2C=Cc2ccccc21 [Compound H-164] | +
12 | O=C(COc1ccccc1)O[C@H](Cc1ccc2ccccc2c1)C(=O)O [Compound H-176] | ++
13 | O=C(CC1c2ccccc2-c2ccccc21)O[C@H](Cc1ccc2ccccc2c1)C(=O)O [Compound H-106] | ++
14 | O=C(O)[C@@H](Cc1ccc2ccccc2c1)NC(=O)C1(O)c2ccccc2-c2ccccc21 [Compound H-101] | ++
15 | Cc1ccc(C(=O)O[C@H](Cc2ccc3ccccc3c2)C(=O)O)cc1C [Compound H-265] | +
16 | O=C(Cc1c[nH]c2ccccc12)O[C@H](Cc1ccc2ccccc2c1)C(=O)O [Compound H-180] | ++
17 | O=C(O)[C@@H](Cc1ccc2ccccc2c1)OC(=O)N1c2ccccc2Oc2ccccc21 [Compound H-157] | ++
18 | O=C(N[C@H](Cc1ccc2ccccc2c1)C(=O)OCc1ccccc1)C1c2ccccc2-c2ccccc21 [Compound H-105] | − (Hydrolysis causes conversion to H-109, which is active)
19 | O=C(O[C@H](Cc1ccc2ccccc2c1)C(=O)OCc1ccccc1)c1ccc2ccccc2c1 [Compound H-21] | − (Hydrolysis causes conversion to H-30, which is active)
20 | CC(C)(C)OC(=O)N[C@@H](Cc1ccccc1)C(=O)O[C@H](Cc1ccc2ccccc2c1)C(=O)O [Compound H-248] | +
21 | O=C(Cc1ccc2ccccc2c1)N[C@H](Cc1ccc2ccccc2c1)C(=O)O [Compound H-158] | ++
22 | Cc1cc(C)cc(C(=O)O[C@H](Cc2ccc3ccccc3c2)C(=O)O)c1 [Compound H-210] | +
23 | O=C(N[C@H](Cc1ccc2ccccc2c1)C(=O)O)C1c2ccccc2-c2ccccc21 [Compound H-109] | +++
24 | O=C(O)[C@@H](Cc1ccc2ccccc2c1)NC(=O)N1c2ccccc2CCc2ccccc21 [Compound H-178] | +++
25 | O=C(Nc1ccccc1Oc1ccccc1)N[C@H](Cc1ccc2ccccc2c1)C(=O)O [Compound H-334] | +++
26 | O=C(O[C@H](Cc1ccc2ccccc2c1)C(=O)O)C1c2ccccc2-c2ccccc21 [Compound H-31] | +++
27 | O=C(O[C@H](Cc1ccc2ccccc2c1)C(=O)O)c1cc(Cl)cc(Cl)c1 [Compound H-200] | +
28 | O=C(O)[C@@H](Cc1ccc2ccccc2c1)NC(=O)N1c2ccccc2Oc2ccccc21 [Compound H-162] | ++
29 | O=C(O)[C@@H](Cc1ccc2ccccc2c1)NC(=O)n1c2ccccc2c2ccccc21 [Compound H-163] | ++
30 | COc1ccc(C(=O)O[C@H](Cc2ccc3ccccc3c2)C(=O)O)cc1OC [Compound H-266] | +
31 | O=C(COc1ccc2ccccc2c1)O[C@H](Cc1ccc2ccccc2c1)C(=O)O [Compound H-177] | ++
32 | COc1cc(OC)cc(C(=O)O[C@H](Cc2ccc3ccccc3c2)C(=O)O)c1 [Compound H-198] | +
33 | O=C(O[C@H](Cc1ccc2ccccc2c1)C(=O)O)c1ccc(Cl)c(Cl)c1 [Compound H-269] | +
34 | COC(=O)[C@@H](Cc1ccc2ccccc2c1)NC(=O)CN1c2ccccc2C2C=CC=CC21 (some centres unmarked) [Compound H-521] | +
35 | COc1ccc(-c2cc(C(=O)O[C@H](Cc3ccc4ccccc4c3)C(=O)O)c(C)o2)cc1 [Compound H-32] | +
36 | COC(=O)c1ccc2cc(C(=O)N[C@H](Cc3ccc4ccccc4c3)C(=O)O)ccc2c1 [Compound H-62] | +
37 | O=C(O[C@H](Cc1ccc2ccccc2c1)C(=O)O)c1ccc(F)c(F)c1 [Compound H-270] | +
38 | O=C(Cn1c2ccccc2c2ccccc21)N[C@H](Cc1ccc2ccccc2c1)C(=O)O [Compound H-536] | +
39 | O=C(O)[C@@H](Cc1ccc2ccccc2c1)NC(=O)N(c1ccccc1)c1ccccc1 [Compound H-161] | ++
40 | O=C(CC1c2ccccc2-c2ccccc21)N[C@H](Cc1ccc2ccccc2c1)C(=O)O [Compound H-103] | +++

Other lines, results leading:

Row | Pin1 inhibition activity | SMILES
41 | + | O=C(Cc1ccc2ccccc2c1)O[C@H](Cc1ccc2ccccc2c1)C(=O)O [Compound H-149]
42 | +++ | O=C(COc1cccc2ccccc12)O[C@H](Cc1ccc2ccccc2c1)C(=O)O [Compound H-179]
43 | ++ | O=C(O[C@H](Cc1ccc2ccccc2c1)C(=O)O)C(c1ccccc1)c1ccccc1 [Compound H-134]
44 | +++ | O=C(O)[C@@H](Cc1ccc2ccccc2c1)OC(=O)n1c2ccccc2c2ccccc21 [Compound H-175]
45 | + | O=C(O[C@H](Cc1ccc2ccccc2c1)C(=O)O)c1ccc(-c2ccccc2)cc1 [Compound H-33]
46 | ++ | O=C(O[C@H](Cc1ccc2ccccc2c1)C(=O)O)c1ccc2ccccc2c1 [Compound H-30]
47 | ++ | O=C(O[C@H](Cc1ccc2ccccc2c1)C(=O)O)c1ccc(Oc2ccccc2)cc1 [Compound H-123]
48 | ++ | O=C(Cc1cccc2ccccc12)O[C@H](Cc1ccc2ccccc2c1)C(=O)O [Compound H-151]
49 | +++ | O=C(O[C@@H](Cc1ccc2ccccc2c1)C(=O)O)C1c2ccccc2-c2ccccc21 [Compound H-141]
50 | ++ | O=C(O[C@H](Cc1ccc2ccccc2c1)C(=O)O)c1ccc(C(O)c2ccccc2)cc1 (some centres unmarked) [Compound H-23]
51 | + | O=C(O[C@H](Cc1ccc2ccccc2c1)C(=O)O)c1ccccc1Oc1ccccc1 [Compound H-132]
52 | ++ | O=C(Nc1ccc(C(=O)c2ccccc2)cc1)N[C@H](Cc1ccc2ccccc2c1)C(=O)O [Compound H-341]
53 | + | CN(C)c1ccc(C(=O)O[C@H](Cc2ccc3ccccc3c2)C(=O)O)cc1 [Compound H-212]
54 | ++ | O=C(O[C@H](Cc1ccc2ccccc2c1)C(=O)O)c1cccc(Oc2ccccc2)c1 [Compound H-130]

Same assay, conditions: cell-based assay, 293T cells, compound at 100 μM

Row | Pin1 inhibition activity (in words) | SMILES
55 | no Pin1 inhibition activity | O=C(N[C@H](Cc1ccc2ccccc2c1)C(=O)OCc1ccccc1)C1c2ccccc2-c2ccccc21 [Compound H-105]
